Data taken from ChEMBL document CHEMBL2321873, “1-(4-Phenylpiperazin-1-yl)-2-(1H-pyrazol-1-yl)ethanones as novel CCR1 antagonists” (Bioorg Med Chem Lett, 2013).

What was measured:
[1] = Stability of the compound at pH 7.4; type: physicochemical; settings: buffer
[2] = Half life in Sprague-Dawley rat at 0.5 mg/kg, iv; type: ADME, organism-based; parameters: dose 0.5 mg/kg, route intravenous; settings: in vivo
[3] = Oral bioavailability in Sprague-Dawley rat at 5 mg/kg; type: ADME, organism-based; settings: in vivo
[4] = Clearance in Sprague-Dawley rat at 0.5 mg/kg, iv; type: ADME, organism-based; parameters: dose 0.5 mg/kg, route intravenous; settings: in vivo

Stability [1] | half-life [2] | bioavailability [3] | clearance [4] | SMILES
Unstable | – | – | – | COc1cc(N2CCN(C(=O)Cn3nc(C(F)(F)F)c(Cl)c3C)[C@H](CO)C2)ccc1Cl
– | 1.9 h | 10% | 23 mL/min/kg | Cc1c(Cl)c(C(F)(F)F)nn1CC(=O)N1CCN(c2ccc(F)cc2)CC1
